# PubChem BioAssay (NCI)
#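 These data come from cells grown in 96-well plates and exposed to compound for 48 hours at five concentrations. GI50 is the concentration that inhibits growth by half. TGI is the concentration that stops growth completely.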
# How the values were obtained:
# Assay in all cases: NCI tumour cell line growth inhibition, 48 h
# [1] = system: HOP-62 NSCLC
# [2] = system: SK-MEL-5 melanoma
# [3] = system: IGROV1 ovarian
# [4] = system: SK-MEL-28 melanoma
# [5] = system: SNB-19 CNS
# [6] = system: CCRF-CEM leukemia
# [7] = system: SK-MEL-2 melanoma
# [8] = system: NCI/ADR-RES ovarian
# [9] = system: HCT-15 colon
# [10] = system: SNB-75 CNS
SMILES,GI50 [1] [µM],TGI [1] [µM],TGI [2] [µM],GI50 [3] [µM],TGI [3] [µM],GI50 [4] [µM],TGI [4] [µM],TGI [5] [µM],TGI [6] [µM],GI50 [7] [µM],TGI [7] [µM],GI50 [2] [µM],GI50 [8] [µM],TGI [8] [µM],GI50 [5] [µM],GI50 [6] [µM],GI50 [9] [µM],TGI [9] [µM],GI50 [10] [µM],TGI [10] [µM]
CC(C)(c1ccccc1)c1ccc(Oc2ccc(C#N)c(C#N)c2)cc1,> 100,> 100,> 100,> 100,> 100,> 100,> 100,> 100,> 100,> 100,> 100,–,–,–,–,–,–,–,–,–
CCSc1nc(SCC)c2c(-c3ccc(OC)c(OC)c3)c(C#N)c(SCC)nc2n1,22.6,63.2,78.8,33.5,> 100,41.8,> 100,> 100,> 100,63.8,> 100,26.6,14.4,45,47.7,83.7,24.6,61.2,–,–
O=C(Nc1ccc(Oc2cccc(F)c2)c(Cl)c1)c1cnccn1,0.973,> 50,> 50,1.83,> 50,28.6,> 50,> 50,> 50,2.15,> 50,1.79,–,–,2.74,1.3,0.28,> 50,1.06,4.22
O=C(O)c1nc(-c2ccc(Cl)c(Cl)c2)nc2ccc(Cl)cc12,–,> 100,> 100,–,> 100,–,> 100,> 100,> 10,–,> 100,–,–,–,–,–,–,> 100,–,35.4
CC(=O)O[C@H]1CCC2[C@@H]3CCC4c5nonc5CC[C@]4(C)C3CC[C@@]21C (stereo partly drawn),–,> 10,> 10,> 100,> 100,–,> 10,> 10,> 100,> 100,> 100,–,–,–,–,> 100,–,> 10,> 10,> 100
CCOC(=O)/C(O)=C(/C(=O)OC)c1ccc(Cl)cc1,–,> 100,> 100,–,> 100,–,> 100,> 100,> 100,–,> 100,–,–,–,–,–,–,> 100,–,> 100
CN(C)C(=O)c1ccc([N+](=O)[O-])cc1,–,> 100,> 100,–,> 100,–,> 100,> 100,> 100,–,> 100,–,–,–,–,–,–,> 100,–,> 100
Oc1c(Cl)c(Cl)c(O)c2c1CCCC2,–,51.6,25.7,–,–,–,27.7,30.5,5.05,–,45.4,–,–,38,–,–,–,29.7,–,–
CN(C)C(=O)c1cnc2oc3ccc(O)cc3c2c1-c1ccccc1,> 25,> 25,> 25,> 25,> 25,5.12,> 25,–,–,> 25,> 25,6.75,> 25,> 25,–,–,> 25,> 25,11.7,> 25
CCC[CH2][Sn]1([CH2]CCC)[O]C2C(CO)OC(n3ccc(N)nc3=O)C2[O]1 (stereo not drawn),2.24,3.99,2.99,1.02,2.78,1.29,2.66,2.93,–,0.964,2.29,1.61,2.01,4.37,1.55,–,1.27,2.7,1.05,2.28
COc1cc([N+](=O)[O-])c(OC)cc1-c1nc2sccn2c1/C=N/N=C(N)N,13.6,46.9,> 100,10.4,50,27.9,63.4,> 100,–,30.9,> 100,33.7,51.1,> 100,8.52,–,26.3,72.4,–,–
CN(C)c1ccc(C(=NO)c2ccc(N(C)C)cc2)cc1,6.1,> 100,4.74,2.4,> 100,5.3,> 100,> 100,> 100,3.57,> 100,1.57,–,–,4.04,3.27,1.64,> 100,3.33,53.2
CCOC(=O)C1CCCCN1C(=O)c1ccc(Nc2cnc3cc(C(F)(F)F)ccc3n2)cc1 (stereo not drawn),17.6,32.5,25.1,19.3,40.8,–,–,64.1,–,23.2,67.3,12.4,14.1,29.2,21.3,–,17.2,42.6,–,–
CNC(=O)OCc1c2ccncc2c(C)c2c1[nH]c1ccc(OC)cc12,–,1.07,–,–,4.56,–,2.04,1.93,1.29,–,0.509,–,–,–,–,–,–,> 100,–,–
COC(=O)c1cc2ccccc2c2c3c(ccc12)OCO3,26.2,91.7,> 1000,90.7,> 1000,71.3,328,990,–,49.9,334,45.2,54.4,> 1000,73,–,137,> 1000,12.2,48.1
C[CH2][Sn]([CH2]C)([O]C(=O)c1ccccc1F)[O][Sn]([CH2]C)([CH2]C)[O]C(=O)c1ccccc1F,> 100,> 100,> 70.3,> 87.8,> 100,18.7,33.4,> 57.6,21.6,19.1,38.6,41.2,–,–,> 43.6,4.67,34.3,> 62.8,25.1,> 57.8
Cc1[nH]c2ccc(F)cc2c1-c1nc2c3cccnc3c3ncccc3c2[nH]1,0.305,> 100,0.516,0.374,> 100,0.36,> 100,> 100,> 100,0.51,> 100,0.19,–,–,0.384,0.193,0.387,> 100,0.422,> 100
O=S(=O)(/C=C/CS(=O)(=O)c1ccccc1)c1ccccc1,–,46.2,> 100,–,> 100,–,> 100,> 100,> 100,–,29.3,–,–,–,–,–,–,45.6,–,> 100
COC(=O)C(CC1=C(O)Nc2ccccc2N1)/C(=N/NC(N)=O)C(=O)Nc1ccccc1C (stereo not drawn),–,> 100,> 100,–,> 100,–,> 100,> 100,48.8,–,> 100,–,–,–,–,–,–,34.1,–,> 100

SMILES,GI50 [1] [µM],TGI [1] [µM],TGI [2] [µM],GI50 [3] [µM],TGI [3] [µM],GI50 [4] [µM],TGI [4] [µM],TGI [5] [µM],TGI [6] [µM],GI50 [7] [µM],TGI [7] [µM],GI50 [2] [µM],GI50 [8] [µM],TGI [8] [µM],GI50 [5] [µM],GI50 [6] [µM],GI50 [9] [µM],TGI [9] [µM],GI50 [10] [µM],TGI [10] [µM]
CCN(CC)c1oc(N(CC)CC)c(C(=O)Nc2ccccn2)c(=O)c1C(C)=O,–,> 100,> 100,–,> 100,–,> 100,> 100,> 100,–,> 100,–,–,–,–,–,–,> 100,–,> 100
O=C(NC(=Nc1ccccc1)SCCSC(=Nc1ccccc1)NC(=O)c1cccs1)c1cccs1,–,> 100,74,–,> 100,–,> 100,> 100,> 100,–,> 100,–,–,–,–,–,–,> 100,–,99.8
COc1ccc(CC2(Cc3ccc(OC)cc3)CCOC2=O)cc1,–,> 100,–,–,> 100,–,> 100,> 100,> 100,–,> 100,–,–,–,–,–,–,–,–,48.9
CCOc1ccc(NC(=O)C(=O)C(C(=O)c2ccc3ccccc3c2)C2OC(=O)c3ccccc32)cc1 (stereo not drawn),–,39.4,31.9,–,52.5,–,37.5,> 100,57.7,–,37.2,–,–,–,–,–,–,43.4,–,64.9
[O-]c1ccccc1/C=N/C(/N=C/c1ccccc1[O-])c1ccccc1O.[O-]c1ccccc1/C=N/C(/N=C/c1ccccc1[O-])c1ccccc1O.[Zr+4],34.2,> 100,> 100,56.4,> 100,17.1,78.2,> 100,–,–,–,22.4,> 100,> 100,13.1,–,50.3,> 100,3.8,61.1
COc1cccc(NC(=O)CC(=O)N2N=C(n3ccc4ccccc43)CC2c2ccccc2)c1 (stereo not drawn),–,> 100,–,–,> 100,–,> 100,> 100,> 100,–,> 100,–,–,–,–,–,–,> 100,–,> 100
O=C(N/C(=C\c1ccc(/C=C(\NC(=O)c2ccccc2)c2nc3ccccc3[nH]2)cc1)c1nc2ccccc2[nH]1)c1ccccc1,–,> 100,> 100,–,> 100,–,> 100,> 100,> 100,–,> 100,–,–,–,–,–,–,> 100,–,> 100
CC(=O)[CH-]C(=O)c1ccccc1.CC(=O)[CH-]C(=O)c1ccccc1.CC(=O)[CH-]C(=O)c1ccccc1.[In+3],–,–,–,91.4,> 100,34.2,> 100,> 100,49.4,13,34.2,–,–,–,> 100,11.6,–,–,19.8,> 100
C[C@]12CCC(=O)CC1CCCC2=O (stereo partly drawn),–,> 100,> 100,–,> 100,–,> 100,> 100,> 100,–,> 100,–,–,–,–,–,–,> 100,–,> 100
COc1ccc(C(=O)/C=C/c2cccc(Nc3ccnc4cc(Cl)ccc34)c2)cc1,1.44,3.99,–,1.44,6.53,–,–,> 100,> 100,–,–,–,–,–,2.26,2.88,2.04,> 100,1.51,4.12
O=[N+]([O-])c1cc(Cl)cnc1Br,–,35.1,10.1,–,8.32,–,10.2,26.8,19.6,–,–,–,–,6.72,–,–,–,7.11,–,–
CCc1ccccc1NC(=O)/C(N=O)=C(/C)O,–,> 100,> 100,–,> 100,–,> 100,> 100,> 100,–,> 100,–,–,–,–,–,–,> 100,–,> 100
COc1cnc2c(c1)C(=O)c1c-2n(CCCNC2=NCCS2)c(=O)c2cc(Cl)ccc12,0.0425,1.51,2.12,–,–,–,–,–,–,18.3,34.3,0.812,–,–,–,–,1.26,2.67,1.23,2.51
CC1(C)CC2CC(CC(C)(C)C2=O)C1=O,–,> 100,> 100,–,> 100,–,> 100,> 100,> 100,–,> 100,–,–,–,–,–,–,> 100,–,> 100
CCN1C(=O)N(CC)C2C1NN=c1s/c(=C\c3ccccn3)c(=O)n12 (stereo not drawn),2.91,> 100,> 100,2.02,> 100,4.95,> 100,> 100,> 100,2.64,> 100,2.46,0.977,> 100,3.04,1.53,0.558,> 100,–,–
CCc1cccc(C)c1NC(=O)C1=C(C)NC(C)=C(C(=O)Nc2c(C)cccc2CC)C1c1ccc2c(c1)OCO2,–,36.9,31.9,–,78.6,–,32.7,96.4,51.2,–,29.6,–,–,–,–,–,–,–,–,91.9
COc1ccc2nc3cc(Cl)ccc3c(SCC(=O)Nc3ccccc3-c3ccccc3NC(=O)CSc3c4ccc(Cl)cc4nc4ccc(OC)cc34)c2c1,–,> 100,> 100,–,> 100,–,> 100,> 100,> 100,–,> 100,–,–,–,–,–,–,> 100,–,> 100
CCCN(CCC)C(=O)C(=O)c1c(N)[nH]n(-c2ccccc2)c1=O,–,–,> 100,–,> 100,–,–,> 100,> 100,–,> 100,–,–,–,–,–,–,> 100,–,–
